Source: PMC5344293, “A phase 1 dose-escalation and expansion study of binimetinib (MEK162), a potent and selective oral MEK1/2 inhibitor” (British Journal of Cancer, 2017)

Experiment: Phase 1 safety: adverse events
Assay type: in vivo, human
Description: All patients underwent a complete medical history and physical examination, assessment of ECOG performance status and vital signs, and laboratory analysis of haematology, coagulation, clinical chemistry, and urine. Three serial resting and supine 12-lead electrocardiograms were conducted over 5–10 min and cardiac ejection fraction was assessed by echocardiogram or MUGA. In addition, a complete ophthalmologic examination (including visual acuity; fundoscopy and tonometry; optical coherence tomography; and slit-lamp, lens, vitreous, and fluorescence dye examinations) was performed on each patient. These assessments were repeated throughout study participation and/or as clinically indicated. Adverse events were reviewed on an ongoing basis.
Adverse events and serious AEs (SAEs) were coded by preferred term (PT) and system organ class using the Medical Dictionary for Regulatory Activities version 12.0. The severity of AEs was assessed by investigators using the National Cancer Institute Common Terminology Criteria for Adverse Events version 3.0. Two AEs of special interest were captured under the composite terms of ‘combined rash' and ‘combined ocular events.' The ‘combined rash' term included the PTs of dermatitis acneiform, acne, skin exfoliation, and any term containing ‘rash'. The ‘combined ocular events' term included the PTs of retinal deposits, retinopathy, papilloedema, chorioretinopathy, macular oedema, retinal detachment, and retinal disorder.
All patients who received ⩾1 dose of binimetinib were included in the safety analysis. Patients in the safety analysis who had ⩾1 measurable lesion at baseline and at least 1 post-baseline disease assessment were evaluable for efficacy. Kaplan–Meier estimates of progression-free survival (PFS) and overall survival (OS) were performed for patients in the expansion phase ([Kaplan and Meier, 1958]) using SAS Version 9.2 (SAS Institute Inc., Cary, NC, USA).

[1] = AEs regardless of causality, N=93

## Cn1cnc2c(F)c(Nc3ccc(Br)cc3F)c(C(=O)NOCCO)cc21 [binimetinib]
80 mg BID (n=4), Gr 1/2
  Anaemia: 0 (0) n (%)
  Anorexia: 1 (25) n (%)
  Combined ocular events: 1 (25) n (%)
  Combined rash: 0 (0) n (%)
  Constipation: 0 (0) n (%)
  Diarrhoea: 1 (25) n (%)
  Dizziness: 0 (0) n (%)
  Dyspnoea: 1 (25) n (%)
  Fatigue: 1 (25) n (%)
  Nausea: 1 (25) n (%)
  Peripheral oedema: 2 (50) n (%)
  Pyrexia: 0 (0) n (%)
  Vomiting: 2 (50) n (%)
80 mg BID (n=4), Gr 3/4
  Abdominal pain: 0 (0) n (%)
  Anaemia: 0 (0) n (%)
  Anorexia: 0 (0) n (%)
  Combined ocular events: 1 (25) n (%)
  Combined rash: 1 (25) n (%)
  Constipation: 0 (0) n (%)
  Diarrhoea: 0 (0) n (%)
  Dizziness: 0 (0) n (%)
  Dyspnoea: 0 (0) n (%)
  Fatigue: 0 (0) n (%)
  Nausea: 0 (0) n (%)
  Peripheral oedema: 0 (0) n (%)
  Pyrexia: 0 (0) n (%)
  Vomiting: 0 (0) n (%)
80 mg BID dose group
  AEs resulting in treatment discontinuation, patients: 25%
  AEs that resulted in dose reduction, patients: 75%
  Incidence of ocular events: 50%
  Incidence of peripheral oedema: 50%
18 patients with ocular events, range, 2–168 days
  Median time to onset of ocular events: 17 days
[1]
  Patients who experienced grade 2 events: 41%
  Patients who experienced grade 3 events: 49%
N=93
  Grade 3 abdominal pain: 4%
  Grade 3 anaemia: 11%
  Grade 3 dehydration: 4%
  Grade 4 AEs, patients: 6%
  Grade 4 anaemia: 3%
  Grade 5 events: no grade 5 events
Total (N=93), all grades
  Abdominal pain: 20 (22) n (%)
  Anaemia: 24 (26) n (%)
  Anorexia: 18 (19) n (%)
  Combined ocular events: 18 (19) n (%)
  Combined rash: 75 (81) n (%)
  Constipation: 18 (19) n (%)
  Diarrhoea: 47 (51) n (%)
  Dizziness: 14 (15) n (%)
  Dyspnoea: 17 (18) n (%)
  Fatigue: 40 (43) n (%)
  Nausea: 52 (56) n (%)
  Peripheral oedema: 43 (46) n (%)
  Pyrexia: 17 (18) n (%)
  Vomiting: 48 (52) n (%)
All dose levels, all grades
  Diarrhoea, patients: 51%
  Fatigue, patients: 43%
  Nausea, patients: 56%
  Ocular events (combined), patients: 19%
  Peripheral oedema, patients: 46%
  Rash (combined rash and related skin disorders), patients: 81%
  Vomiting, patients: 52%
All patients
  AEs of increased blood CK, patients: 13%
  AEs of increased blood CK-MB, patients: 1%
  Combined rash grade 1, patients: 44%
  Combined rash grade 2, patients: 33%
  Discontinuation due to combined rash: 2%
  Discontinuation due to fatigue: 3%
  Discontinuation due to nausea: 3%
  Discontinuation due to small intestinal obstruction: 2%
  Dose modification for AEs of increased blood CK, patients: 4%
  Dose reduction due to chorioretinopathy: 9%
  Dose reduction due to combined rash: 3%
  Dose reduction due to diarrhoea: 2%
  Dose reduction due to fatigue: 2%
  Dose reduction due to increased CK: 2%
  Dose reduction due to macular oedema: 2%
  Dose reduction due to myodesopsia: 2%
  Dose reduction due to photopsia: 3%
  Dose reduction due to retinal detachment: 3%
  Dose reduction due to retinopathy: 2%
  Dose reduction due to visual impairment: 2%
  Dose reduction due to vomiting: 2%
  Grade 3 ocular event of chorioretinopathy, patients: 1%
  Maximum reported SAE severity grade 2, patients: 5%
  Maximum reported SAE severity grade 3, patients: 22%
  Maximum reported SAE severity grade 4, patients: 3%
  Maximum reported severity of nausea, vomiting, or diarrhoea: either grade 1 or grade 2
  Ocular events grade 1, patients: 5%
  Ocular events grade 2, patients: 13%
  Peripheral oedema maximum severity grade 1, patients: 32%
  Peripheral oedema maximum severity grade 2, patients: 14%
  Permanent discontinuation for peripheral oedema, patients: 1%
  SAE anaemia: 4%
  SAE bacteraemia: 2%
  SAE dehydration: 2%
  SAE gastrointestinal haemorrhage: 2%
  SAE pneumonia: 2%
  SAE small intestinal obstruction: 2%
  SAE ulcer haemorrhage: 2%
All patients, led to permanent discontinuation
  Grade 1 venous stasis retinopathy, patients: 1%
All patients, required dose modification or discontinuation
  Combined rash grade 3, patients: 3%
Cause of death disease progression in all
  Patients who died during the study or within 30 days of the last dose: 22%
During the study or within 30 days of the last dose, all patients
  Patients reporting SAEs: 30%
Laboratory values, all patients
  Increased CK, patients: 69%
Of patients with ocular events
  Ocular events recovering/resolving: 17%
  Ocular events with complete resolution: 78%
  Ocular events with stable retinal findings at treatment discontinuation: 6%
Shifted by ⩾3 grades from baseline and/or grade 4
  Clinically significant CK values, patients: 10%
